Test results as given in publication PMC6131557, “Selective Cytotoxicity of Dihydroorotate Dehydrogenase Inhibitors to Human Cancer Cells Under Hypoxia and Nutrient-Deprived Conditions” (Frontiers in Pharmacology, 2018).
Read-outs that look alike come from different tables or passages of the source.

Assays:
NCI-H23 = experiment: 39-cancer cell panel assay: NCI-H23; assay type: cell-based; details: Homo sapiens, Lu
MCF-7 = experiment: 39-cancer cell panel assay: MCF-7; assay type: cell-based; details: Homo sapiens, MCF7, Br
NCI-H460 = experiment: 39-cancer cell panel assay: NCI-H460; assay type: cell-based; details: Homo sapiens, Lu
HBC-5 = experiment: 39-cancer cell panel assay: HBC-5; assay type: cell-based; details: Homo sapiens, HBC5, Br
A549 = experiment: 39-cancer cell panel assay: A549; assay type: cell-based; details: Homo sapiens, Lu
KM-12 = experiment: 39-cancer cell panel assay: KM-12; assay type: cell-based, human; details: Co
DU-145 = experiment: 39-cancer cell panel assay: DU-145; assay type: cell-based; details: Homo sapiens, Pro
OVCAR-4 = experiment: 39-cancer cell panel assay: OVCAR-4; assay type: cell-based; details: Homo sapiens, Ov
HCC2998 = experiment: 39-cancer cell panel assay: HCC2998; assay type: cell-based; details: Homo sapiens, HCC 2998, Co
OVCAR-3 = experiment: 39-cancer cell panel assay: OVCAR-3; assay type: cell-based; details: Homo sapiens, Ov
OVCAR-5 = experiment: 39-cancer cell panel assay: OVCAR-5; assay type: cell-based; details: Homo sapiens, Ov
SNB-75 = experiment: 39-cancer cell panel assay: SNB-75; assay type: cell-based; details: Homo sapiens, CNS
NCI-H226 = experiment: 39-cancer cell panel assay: NCI-H226; assay type: cell-based; details: Homo sapiens, Lu
HBC-4 = experiment: 39-cancer cell panel assay: HBC-4; assay type: cell-based; details: Homo sapiens, HBC4, Br
MKN1 = experiment: 39-cancer cell panel assay: MKN1; assay type: cell-based; details: Homo sapiens, MKN-1, St
SF-539 = experiment: 39-cancer cell panel assay: SF-539; assay type: cell-based; details: Homo sapiens, CNS
SF-268 = experiment: 39-cancer cell panel assay: SF-268; assay type: cell-based; details: Homo sapiens, CNS
MKN74 = experiment: 39-cancer cell panel assay: MKN74; assay type: cell-based; details: Homo sapiens, MKN-74, St
NCI-H522 = experiment: 39-cancer cell panel assay: NCI-H522; assay type: cell-based; details: Homo sapiens, Lu
OVCAR-8 = experiment: 39-cancer cell panel assay: OVCAR-8; assay type: cell-based; details: Homo sapiens, Ov
MKN7 = experiment: 39-cancer cell panel assay: MKN7; assay type: cell-based; details: Homo sapiens, MKN-7, St
LOX-IMVI = experiment: 39-cancer cell panel assay: LOX-IMVI; assay type: cell-based; details: Homo sapiens, Me
SF-295 = experiment: 39-cancer cell panel assay: SF-295; assay type: cell-based; details: Homo sapiens, CNS
HCT-15 = experiment: 39-cancer cell panel assay: HCT-15; assay type: cell-based; details: Homo sapiens, Co
U251 = experiment: 39-cancer cell panel assay: U251; assay type: cell-based; details: Homo sapiens, U-251, CNS
SNB-78 = experiment: 39-cancer cell panel assay: SNB-78; assay type: cell-based; details: Homo sapiens, CNS
HCT-116 = experiment: 39-cancer cell panel assay: HCT-116; assay type: cell-based; details: Homo sapiens, Co
PC-3 = experiment: 39-cancer cell panel assay: PC-3; assay type: cell-based; details: Homo sapiens, Pro
ACHN = experiment: 39-cancer cell panel assay: ACHN; assay type: cell-based; details: Homo sapiens, Re
RXF-631L = experiment: 39-cancer cell panel assay: RXF-631L; assay type: cell-based; details: Homo sapiens, Re
MKN45 = experiment: 39-cancer cell panel assay: MKN45; assay type: cell-based; details: Homo sapiens, MKN-45, St
DMS273 = experiment: 39-cancer cell panel assay: DMS273; assay type: cell-based; details: Homo sapiens, DMS-273, Lu
DMS114 = experiment: 39-cancer cell panel assay: DMS114; assay type: cell-based; details: Homo sapiens, DMS-114, Lu
SK-OV-3 = experiment: 39-cancer cell panel assay: SK-OV-3; assay type: cell-based; details: Homo sapiens
[1] = molecular target: T1, human dihydroorotate dehydrogenase (HsDHODH) (Homo sapiens, UniProt Q02127); experiment: Inhibition of recombinant human DHODH enzyme activity; assay type: biochemical; details: recombinant human DHODH; purified enzyme fixed at 10 nM; read-out: IC50 (nM), inhibition of human DHODH
T1 construct: made in house

MKN28 = experiment: 39-cancer cell panel assay: MKN28; assay type: cell-based; details: Homo sapiens, MKN-28, St
HT-29 = experiment: 39-cancer cell panel assay: HT-29; assay type: cell-based; details: Homo sapiens, Co
BSY-1 = experiment: 39-cancer cell panel assay: BSY-1; assay type: cell-based; details: Homo sapiens, Br
MDA-MB-231 = experiment: 39-cancer cell panel assay: MDA-MB-231; assay type: cell-based; details: Homo sapiens, Br
St-4 = experiment: 39-cancer cell panel assay: St-4; assay type: cell-based; details: Homo sapiens
DLD-1 cells = experiment: Cytotoxicity assay (Cell Counting Kit-8 / WST-8) on DLD-1 cells; assay type: cell-based, human; details: Homo sapiens
Description: (§1) For hypoxia and nutrient-deprived culture conditions, cells were incubated under 1% oxygen in glucose and glutamine-free DMEM (Gibco) without FBS.
(§2) DLD-1 or HDF cells were seeded at 2.5 × 10^4 cells/well on a 96-well plate with normal medium, and cultured overnight under normal culture condition. The cells were washed with PBS and the medium was replaced to either normal medium or glucose and glutamine-free DMEM without FBS. Test compounds or DMSO as a control were added to the wells. The cells in normal medium were cultured under normal culture conditions, while cells in nutrient-deprived medium were cultured under hypoxia condition. After 24 or 48 h incubation, the cells were washed with PBS, 100 μl of fresh normal medium, and 10 μl of Cell Counting Kit-8 solution (Donjindo, Japan) was added to each well. After 3 h incubation under normal culture condition, the absorbance was measured at 450 nm using SpectraMax M2e-TUY microplate reader (Molecular Devices). Cell viability of test wells was calculated based on absorbance of control wells containing DMSO according to manufacturer’s protocol.

Complex II–III = experiment: Succinate-cytochrome c reductase (complexes II–III) activity, bovine mitochondria; assay type: biochemical
Description: (§3) Recombinant human DHODH was purified, crystallized, and assayed as previously described ([Inaoka et al., 2016]) without modification. Bovine mitochondrial fractions were prepared as previously described ([Kita et al., 1988]) and NADH dehydrogenase (complex I), succinate:quinone reductase (complex II), quinol oxidase (complexes III–IV), NADH-cytochrome c reductase (complexes I–III), and succinate-cytochrome c (complexes II–III) activities were assayed following an established method ([Takamiya et al., 1986]; [Miyadera et al., 2001]; [Matsumoto et al., 2008]; [Kido et al., 2010]; [Nihashi et al., 2017]).

Complexes I–III = experiment: NADH-cytochrome c reductase (complexes I–III) activity, bovine mitochondria; assay type: biochemical
Description: as §3

Complex III = molecular target: T2, Complex III (Bos taurus, UniProt P00157); experiment: Quinol oxidase (complex III) activity, bovine mitochondria; assay type: biochemical; details: ubiquinol oxidase activity
T2 construct: from tissue; host or cells: bovine mitochondrial fraction / sub-mitochondrial particles

Complex I = experiment: NADH dehydrogenase (complex I) activity, bovine mitochondria; assay type: biochemical; details: at 5 μM
Description: as §3

HDF cells = experiment: Cytotoxicity assay (Cell Counting Kit-8 / WST-8) on HDF cells; assay type: cell-based; details: Homo sapiens
Description: as §1, §2

Complex II = molecular target: T3, Complex II (Bos taurus, UniProt P35720+Q3T189+Q95123); experiment: Succinate:quinone reductase (complex II) activity, bovine mitochondria; assay type: biochemical
T3 construct: from tissue; host or cells: bovine mitochondrial fraction / sub-mitochondrial particles
T3 sequence (P31039 45-665 partner limits assumed): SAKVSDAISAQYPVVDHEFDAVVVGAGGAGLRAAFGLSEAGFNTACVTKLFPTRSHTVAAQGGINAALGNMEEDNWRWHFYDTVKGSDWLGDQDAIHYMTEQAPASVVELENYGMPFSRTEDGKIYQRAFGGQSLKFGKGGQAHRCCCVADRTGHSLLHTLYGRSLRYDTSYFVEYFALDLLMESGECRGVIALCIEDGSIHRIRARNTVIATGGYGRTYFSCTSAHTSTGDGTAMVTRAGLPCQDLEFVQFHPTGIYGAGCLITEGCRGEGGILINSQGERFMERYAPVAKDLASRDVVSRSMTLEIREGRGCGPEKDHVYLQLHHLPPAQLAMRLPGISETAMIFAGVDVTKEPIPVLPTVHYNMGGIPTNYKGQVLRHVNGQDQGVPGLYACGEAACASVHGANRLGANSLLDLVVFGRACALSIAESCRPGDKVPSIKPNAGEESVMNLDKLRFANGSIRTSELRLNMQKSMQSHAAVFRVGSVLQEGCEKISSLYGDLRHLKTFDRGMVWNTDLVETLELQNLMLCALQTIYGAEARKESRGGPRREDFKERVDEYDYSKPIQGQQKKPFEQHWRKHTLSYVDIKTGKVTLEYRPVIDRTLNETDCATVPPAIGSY
T3 sequence (Q3T189 29-280): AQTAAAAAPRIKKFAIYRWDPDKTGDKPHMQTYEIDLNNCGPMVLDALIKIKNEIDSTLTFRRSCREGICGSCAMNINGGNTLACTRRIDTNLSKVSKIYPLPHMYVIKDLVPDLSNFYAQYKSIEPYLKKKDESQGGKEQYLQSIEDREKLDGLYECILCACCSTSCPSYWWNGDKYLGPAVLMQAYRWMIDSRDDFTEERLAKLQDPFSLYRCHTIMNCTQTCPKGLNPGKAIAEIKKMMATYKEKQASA
T3 sequence (P35720 30-169): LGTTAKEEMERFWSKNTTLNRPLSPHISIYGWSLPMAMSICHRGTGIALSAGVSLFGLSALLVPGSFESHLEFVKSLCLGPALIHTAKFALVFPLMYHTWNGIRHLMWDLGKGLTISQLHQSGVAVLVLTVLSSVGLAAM
T3 sequence (Q95123 56-158): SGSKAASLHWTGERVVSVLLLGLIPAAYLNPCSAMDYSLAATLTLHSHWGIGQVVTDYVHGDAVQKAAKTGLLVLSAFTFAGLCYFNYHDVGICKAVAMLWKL

T1 sequence (Q02127 whole entry): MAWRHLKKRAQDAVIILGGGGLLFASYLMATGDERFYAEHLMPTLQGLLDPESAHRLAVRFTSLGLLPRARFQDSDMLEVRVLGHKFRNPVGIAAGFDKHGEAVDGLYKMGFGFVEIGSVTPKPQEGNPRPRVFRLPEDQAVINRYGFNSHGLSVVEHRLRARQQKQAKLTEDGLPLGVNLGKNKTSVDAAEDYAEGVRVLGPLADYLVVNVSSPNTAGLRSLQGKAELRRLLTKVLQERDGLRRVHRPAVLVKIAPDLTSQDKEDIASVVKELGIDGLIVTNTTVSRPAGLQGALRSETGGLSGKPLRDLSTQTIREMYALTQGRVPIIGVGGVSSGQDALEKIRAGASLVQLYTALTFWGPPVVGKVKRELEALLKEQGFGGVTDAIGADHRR

C/C(=C\Cc1c(O)c(Cl)c(C)c(C=O)c1O)CC/C=C(\C)C(C)O (stereo not shown) [Compound 6]
GI50 (NCI-H23): 39 µM
GI50 (MCF-7): 36 µM
GI50 (NCI-H460): 12 µM
GI50 (HBC-5): 61 µM
GI50 (A549): 37 µM
GI50 (μM) KM-12 (KM-12): 32.0 µM
GI50 (DU-145): 25 µM
GI50 (OVCAR-4): 39 µM
GI50 (HCC2998): 43 µM
GI50 (OVCAR-3): 27 µM
GI50 (OVCAR-5): 58 µM
GI50 (SNB-75): 59 µM
GI50 (NCI-H226): 24 µM
GI50 (HBC-4): 37 µM
GI50 (MKN1): 44 µM
GI50 (SF-539): 5.3 µM
GI50 (SF-268): 12 µM
GI50 (MKN74): 26 µM
GI50 (NCI-H522): 22 µM
GI50 (OVCAR-8): 25 µM
GI50 (MKN7): 36 µM
GI50 (LOX-IMVI): 13 µM
GI50 (SF-295): 16 µM
GI50 (HCT-15): 6.2 µM
GI50 (U251): 5.1 µM
GI50 (SNB-78): 43 µM
GI50 (HCT-116): 14 µM
GI50 (PC-3): 22 µM
GI50 (ACHN): 22 µM
GI50 (RXF-631L): 45 µM
GI50 (MKN45): 65 µM
GI50 (DMS273): 18 µM
GI50 (DMS114): 35 µM
GI50 (SK-OV-3): 27 µM
IC50 [1]: 63.9 ± 11 nM
GI50 (MKN28): 36 µM
GI50 (HT-29): 39 µM
GI50 (BSY-1): 59 µM
GI50 (MDA-MB-231): 36 µM
GI50 (St-4): 44 µM

CC(=O)OC(C)/C(C)=C/CC/C(C)=C/Cc1c(O)c(Cl)c(C)c(C=O)c1O (stereo not shown) [Compound 7]
GI50 (NCI-H23): 15 µM
GI50 (MCF-7): 4.9 µM
GI50 (NCI-H460): 0.94 µM
GI50 (HBC-5): 25 µM
GI50 (A549): 3.3 µM
GI50 (μM) KM-12 (KM-12): 5.7 µM
GI50 (DU-145): 14 µM
GI50 (OVCAR-4): 27 µM
GI50 (HCC2998): 13 µM
GI50 (OVCAR-3): 13 µM
GI50 (OVCAR-5): 18 µM
GI50 (SNB-75): 22 µM
GI50 (NCI-H226): 11 µM
GI50 (HBC-4): 5 µM
GI50 (MKN1): 16 µM
GI50 (SF-539): 0.27 µM
GI50 (SF-268): 5 µM
GI50 (MKN74): 11 µM
GI50 (NCI-H522): 4.9 µM
GI50 (OVCAR-8): 8.8 µM
GI50 (MKN7): 16 µM
GI50 (LOX-IMVI): 1.5 µM
IC50 (DLD-1 cells; read-out: IC50 (μM) DLD-1 (24 h) Hypoxia nutrient (-), DLD-1, 24 h, hypoxia (1% oxygen), nutrient (-)): 2 ± 0.19 µM
IC50 (DLD-1 cells; read-out: IC50 (μM) DLD-1 (24 h) Normoxia nutrient (+), DLD-1, 24 h, normoxia, nutrient (+)): > 100 µM
IC50 (DLD-1 cells; DLD-1, 48 h, hypoxia (1% oxygen), nutrient (-), read-out: IC50 (μM) DLD-1 (48 h) Hypoxia nutrient (-)): 0.95 ± 0.059 µM
IC50 (DLD-1 cells; DLD-1, 48 h, normoxia, nutrient (+), read-out: IC50 (μM) DLD-1 (48 h) Normoxia nutrient (+)): > 100 µM
IC50 (Complex II–III): 2.3 ± 0.16 µM
GI50 (SF-295): 8 µM
IC50 (Complexes I–III): 0.46 ± 0.01 µM
GI50 (HCT-15): 0.58 µM
GI50 (U251): 1.5 µM
GI50 (SNB-78): 21 µM
GI50 (HCT-116): 1.5 µM
GI50 (PC-3): 15 µM
GI50 (ACHN): 9.9 µM
GI50 (RXF-631L): 7.5 µM
inhibition at 5 µM (Complex III): > 80%
GI50 (MKN45): 20 µM
Inhibition (%) Complex I (Complex I): 15 ± 2.3%
GI50 (DMS273): 0.91 µM
GI50 (DMS114): 14 µM
GI50 (SK-OV-3): 12 µM
IC50 (HDF cells; read-out: IC50 (μM) HDF (24 h) Hypoxia nutrient (-), hypoxia (1% oxygen), nutrient (-)): 3.4 ± 0.36 µM
IC50 (HDF cells; read-out: IC50 (μM) HDF (24 h) Normoxia nutrient (+), normoxia, nutrient (+)): > 100 µM
IC50 [1]: 6.4 ± 0.2 nM
GI50 (MKN28): 11 µM
GI50 (HT-29): 3.2 µM
GI50 (BSY-1): 20 µM
GI50 (MDA-MB-231): 11 µM
inhibition at 5 µM (Complex II): 3.2 ± 6.7%
GI50 (St-4): 13 µM
